According to US20230158151A1 (NURIX THERAPEUTICS, INC., priority 2021, published 2023):

Biological target: T1, ITK (Mus musculus, UniProt Q03526)
T1 construct: administered to mice orally; from tissue; host or cells: mouse splenocytes (spleen) after oral dosing
T1 sequence (Q03526 1-625): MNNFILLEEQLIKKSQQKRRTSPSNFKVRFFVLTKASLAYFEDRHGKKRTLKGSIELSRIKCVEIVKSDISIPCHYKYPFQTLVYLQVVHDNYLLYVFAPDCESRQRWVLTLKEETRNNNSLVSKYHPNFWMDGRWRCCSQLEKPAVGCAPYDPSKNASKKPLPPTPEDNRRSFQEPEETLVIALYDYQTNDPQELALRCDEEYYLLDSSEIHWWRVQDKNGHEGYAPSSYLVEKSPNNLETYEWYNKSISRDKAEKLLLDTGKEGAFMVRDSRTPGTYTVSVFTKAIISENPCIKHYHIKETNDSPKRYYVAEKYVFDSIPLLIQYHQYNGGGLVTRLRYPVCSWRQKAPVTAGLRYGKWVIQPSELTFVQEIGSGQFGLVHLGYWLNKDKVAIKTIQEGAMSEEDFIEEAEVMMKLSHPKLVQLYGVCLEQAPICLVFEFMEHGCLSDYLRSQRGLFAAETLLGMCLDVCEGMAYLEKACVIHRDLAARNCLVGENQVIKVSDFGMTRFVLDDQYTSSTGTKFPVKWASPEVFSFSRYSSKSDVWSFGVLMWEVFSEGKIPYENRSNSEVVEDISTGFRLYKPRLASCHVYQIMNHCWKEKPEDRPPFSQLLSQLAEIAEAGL
Test: Western Assay for ITK Degradation in Mouse Splenocytes after oral administration
Assay type: in vivo
Conditions: for ITK degradation in vivo by Western blotting: mouse splenocytes, oral
Description: Compounds 30 and 31 were administered to mice orally. After 6 hours, splenocytes cells were harvested. ITK was evaluated by Western blotting. Media was removed and cell pellets were lysed in 100 μL lysis buffer (RIPA buffer (Fisher, PI89901), cOmplete Mini EDTA-free protease inhibitor (Sigma 11836170001), Protease Inhibitor Cocktail (Sigma, P2714), Phosphatase Inhibitor Cocktail 2 and 3 (Sigma, P5726 and P0044), Benzonase (Sigma, E1014)). Cells were lysed overnight at −20° C. Following thaw, cells were centrifuged for 10 min at 13000 rpm, then transferred to new tube. Protein levels were determined by BCA Assay performed according to manufacturer's protocol (EMD Millipore, cat. no. 71285-3). Samples were combined with (4×) LDS Sample Buffer and (10×) Reducing Agent and H2O to equally load 20 μg protein per lane of a 26-well NuPAGE 4-12% Bis-Tris protein gel (1.0 mm, Thermo cat. no. NP0326). Samples were separated by running gels at constant 150 V in NuPAGE MES SDS Running Buffer. Following electrophoresis, proteins were transferred to nitrocellulose membranes using an iBlot Gel Transfer Device and iBlot Gel Transfer Stacks (Thermo cat. no. IB21001 and IB301001) and transfer method P3 (20V for 7 min). Membranes were blocked for 1 hr in 5% milk solution (TBS (0.2% Tween-20)). Following blocking, membranes were incubated with primary antibody (1:1000 CST ITK (2F12) #2380) overnight at 4° C. with gentle shaking. Blots were washed 2× in TBS (0.2% Tween-20), 30 min per wash. Following washes, blots were incubated in secondary HRP-conjugated antibody (Promega anti-Mouse IgG (H+L) HRP cat. no. W4021), 1:5000 in 5% milk solution (TBS (0.2% Tween-20)), for 1 hr at room temperature with gentle shaking. Blots were washed 2× in TBS (0.2% Tween-20), 30 min per wash. Blots were incubated with 1:1 mix of ECL reagents 1 & 2 (Amersham ECL Western Blotting Detection Reagent, cat. no. RPN2106) for 2 min at room temperature. Bands were visualized using a Protein Simple imager. Blots were then re-probed with a combination of anti-actin antibody (Sigma Monoclonal Mouse Anti-β-Actin (clone AC-15), cat. no. A5441) and secondary HRP-conjugated antibody (Promega anti-Mouse IgG (H+L) HRP, cat. no. W4021) and similar steps were taken for incubation, wash, detection and visualization steps as above. The data was analyzed using Alpha View software. The densitometric reading for each sample band was normalized to that of the corresponding actin band per lane. Approximate % ITK remaining per sample was calculated as follows: […]
Once % ITK remaining has been calculated for each sample, groups are averaged together to show an means % ITK normalized to actin and relative to control.
Compounds 30 and 29 were administered to mice orally. After 6 hours or 24 hours, splenocytes cells were harvested. ITK was evaluated by Western blotting. Plasma concentrations were determined by LC/MS/MS. Plasma samples were protein precipitated by addition of 100 μl of acetonitrile containing 50 ng/ml of internal standard. The resulting mixture was vortexed and centrifuged at 4000 RPM for 5 minutes. An aliquot of the resultant supernatant (75 μl) was added to 75 μl of 0.1% formic acid in water to constitute the final sample for injection. Samples were injected on a Shimadzu Exion LC Binary Gradient AD Pump HLPC system connected to a Sciex QTRAP 6500+ mass spectrometer. Five μl of sample was injected onto a Waters Acquity UPLC BEH C18 column 130A (2.1×30 mm, […]) at 40° C. utilizing a flow rate of 700 μl/minute. Mobile Phase A was 0.1% formic acid in water and mobile phase B was 0.1% formic acid in acetonitrile. A linear gradient of 15-95% B over 1.0 minute was used. The mass spectrometer was operated in positive ion electrospray mode with multiple reaction monitoring for maximum sensitivity. Sciex Analyst software (version 1.6.3) was used for LC/MS/MS instrument control and acquisition. […]

[1] = % ITK remaining in mouse splenocytes, 90 mpk PO

Row | ITK (%) 90 mpk PO, 6 h [1] [%] | further results | Compound
1 | 45 | – | CC1(C)CCc2c(-c3cc4ccc(N5CCC6(CCN(CC7CCN(c8ccc(C9CCC(=O)NC9=O)cn8)CC7)CC6)C5=O)cc4[nH]3)n[nH]c2C1 (centres unmarked) [Compound 24, 3-(6-(4-((2-(2-(6,6-dimethyl-4,5,6,7-tetrahydro-1H-indazol-3-yl)-1H-indol-6-yl)-1-oxo-2,8-diazaspiro[4.5]decan-8-yl)methyl)piperidin-1-yl)pyridin-3-yl)piperidine-2,6-dione]
2 | 116 | ITK degradation in vivo by Western blotting (6 hours): degraded ITK in vivo; ITK degradation in vivo by Western blotting (24 hours): degraded ITK in vivo | C[C@@H](C(=O)N(C)c1ccc2cc(-c3n[nH]c4c3CCC(C)(C)C4)[nH]c2c1)N1CCN(CC2CCN(c3ccc(N4CCC(=O)NC4=O)cn3)CC2)CC1 [Compound 31, (S)—N-(2-(6,6-dimethyl-4,5,6,7-tetrahydro-1H-indazol-3-yl)-1H-indol-6-yl)-2-(4-((1-(5-(2,4-dioxotetrahydropyrimidin-1(2H)-yl)pyridin-2-yl)piperidin-4-yl)methyl)piperazin-1-yl)-N-methylpropanamide]
3 | 14 | ITK degradation in vivo by Western blotting (6 hours): degraded ITK in vivo; ITK degradation in vivo by Western blotting (24 hours): degraded ITK | C[C@@H](C(=O)N(C)c1ccc2cc(-c3n[nH]c4c3C[C@@H]3C(F)(F)[C@]3(C)C4)[nH]c2c1)N1CCN(CC2CCN(c3ccc(N4CCC(=O)NC4=O)cn3)CC2)CC1 [Compound 29, (S)—N-(2-((4aS,5aR)-5,5-difluoro-5a-methyl-1,4,4a,5,5a,6-hexahydrocyclopropa[f]indazol-3-yl)-1H-indol-6-yl)-2-(4-((1-(5-(2,4-dioxotetrahydropyrimidin-1(2H)-yl)pyridin-2-yl)piperidin-4-yl)methyl)piperazin-1-yl)-N-methylpropanamide]
4 | 14 | ITK (%) 90 mpk PO, 24 h (% ITK remaining in mouse splenocytes, 90 mpk PO, 24 h): 14% | CC1(C)CCc2c(-c3cc4ccc(C(=O)N5CCN(CC6CCN(c7ccc(C8CCC(=O)NC8=O)cc7)CC6)CC5)cc4[nH]3)n[nH]c2C1 (centres unmarked) [Compound 38, 3-(4-(4-((4-(2-(6,6-dimethyl-4,5,6,7-tetrahydro-1H-indazol-3-yl)-1H-indole-6-carbonyl)piperazin-1-yl)methyl)piperidin-1-yl)phenyl)piperidine-2,6-dione]
5 | 8 | – | C[C@@]12Cc3[nH]nc(-c4cc5ccc(N6CCC7(CCN(CC8CCN(c9ccc(C%10CCC(=O)NC%10=O)cn9)CC8)CC7)C6=O)cc5[nH]4)c3C[C@@H]1C2(F)F (stereo partly drawn) [Compound 28, 3-(6-(4-((2-(2-((4aS,5aR)-5,5-difluoro-5a-methyl-1,4,4a,5,5a,6-hexahydrocyclopropa[f]indazol-3-yl)-1H-indol-6-yl)-1-oxo-2,8-diazaspiro[4.5]decan-8-yl)methyl)piperidin-1-yl)pyridin-3-yl)piperidine-2,6-dione]
6 | – | ITK (%) 60 mpk PO, 24 h (% ITK remaining in mouse splenocytes, 60 mpk PO, 24 h): 93% | CC1(C)CCc2c(-c3cc4ccc(C(=O)N5CCC(CN6CCC(c7ccc(C8CCC(=O)NC8=O)cc7)CC6)CC5)cc4[nH]3)n[nH]c2C1 (centres unmarked) [Compound 39, 3-(4-(1-((1-(2-(6,6-dimethyl-4,5,6,7-tetrahydro-1H-indazol-3-yl)-1H-indole-6-carbonyl)piperidin-4-yl)methyl)piperidin-4-yl)phenyl)piperidine-2,6-dione]
7 | 129 | – | C[C@@]12Cc3[nH]nc(C(=O)Nc4cnn(CC5CN(C(=O)C6CN(c7ccc(C8CCC(=O)NC8=O)cn7)C6)C5)c4)c3C[C@@H]1C2(F)F (stereo partly drawn) [Compound 23, (4aS,5aR)—N-(1-((1-(1-(5-(2,6-dioxopiperidin-3-yl)pyridin-2-yl)azetidine-3-carbonyl)azetidin-3-yl)methyl)-1H-pyrazol-4-yl)-5,5-difluoro-5a-methyl-1,4,4a,5,5a,6-hexahydrocyclopropa[f]indazole-3-carboxamide]
8 | 113 | – | C[C@@]12Cc3[nH]nc(C(=O)Nc4cnn(CC5CN(C(=O)C6CCN(c7ccc(C8CCC(=O)NC8=O)cn7)CC6)C5)c4)c3C[C@@H]1C2(F)F (stereo partly drawn) [Compound 22, (4aS,5aR)—N-(1-((1-(1-(5-(2,6-dioxopiperidin-3-yl)pyridin-2-yl)piperidine-4-carbonyl)azetidin-3-yl)methyl)-1H-pyrazol-4-yl)-5,5-difluoro-5a-methyl-1,4,4a,5,5a,6-hexahydrocyclopropa[f]indazole-3-carboxamide]
9 | 76 | – | CN(C(=O)CCC1CCN(c2ccc(C3CCC(=O)NC3=O)cn2)CC1)c1ccc2cc(-c3n[nH]c4c3C[C@@H]3C(F)(F)[C@]3(C)C4)[nH]c2c1 (stereo partly drawn) [Compound 4, N-(2-((4aS,5aR)-5,5-difluoro-5a-methyl-1,4,4a,5,5a,6-hexahydrocyclopropa[f]indazol-3-yl)-1H-indol-6-yl)-3-(1-(5-(2,6-dioxopiperidin-3-yl)pyridin-2-yl)piperidin-4-yl)-N-methylpropanamide]
10 | 11 | – | CC1(C)CCc2c(-c3cc4ccc(C(=O)N5CCN(CC6CCN(c7ccc(C8CCC(=O)NC8=O)cn7)CC6)CC5)cc4[nH]3)n[nH]c2C1 (centres unmarked) [Compound 26, 3-(6-(4-((4-(2-(6,6-dimethyl-4,5,6,7-tetrahydro-1H-indazol-3-yl)-1H-indole-6-carbonyl)piperazin-1-yl)methyl)piperidin-1-yl)pyridin-3-yl)piperidine-2,6-dione]
11 | 11 | – | C[C@@H](C(=O)N(C)c1ccc2cc(-c3n[nH]c4c3CCC(C)(C)C4)[nH]c2c1)N1CCN(CC2CCN(c3ccc(C4CCC(=O)NC4=O)cn3)CC2)CC1 (stereo partly drawn) [Compound 32, (2S)—N-(2-(6,6-dimethyl-4,5,6,7-tetrahydro-1H-indazol-3-yl)-1H-indol-6-yl)-2-(4-((1-(5-(2,6-dioxopiperidin-3-yl)pyridin-2-yl)piperidin-4-yl)methyl)piperazin-1-yl)-N-methylpropanamide]
12 | 92 | – | CN(C(=O)CC1CCN(CC2CCN(c3ccc(C4CCC(=O)NC4=O)cn3)CC2)CC1)c1ccc2cc(-c3n[nH]c4c3C[C@@H]3C(F)(F)[C@]3(C)C4)[nH]c2c1 (stereo partly drawn) [Compound 6, N-(2-((4aS,5aR)-5,5-difluoro-5a-methyl-1,4,4a,5,5a,6-hexahydrocyclopropa[f]indazol-3-yl)-1H-indol-6-yl)-2-(1-((1-(5-(2,6-dioxopiperidin-3-yl)pyridin-2-yl)piperidin-4-yl)methyl)piperidin-4-yl)-N-methylacetamide]
